Experimental findings from patent US12637478B2, “Compound, preparation method thereof, and antibiotic composition comprising same” (priority 2020, dated 2026) are described below.

Molecules are shown by their SMILES. In brackets after ≈: the same amount, converted by molar mass. Read-outs that look alike come from different tables or passages of the source.

One experiment concerns E. faecalis^LinR. Kind of experiment: MIC by broth microdilution (aerobic pathogens), test strain 9. In kind it is cell-based, Linezolid resistant Enterococcus faecalis. Particulars: Enterococcus faecalis. The protocol:
(§1) The antibacterial activity of the compounds of Examples 1 to 48 of the present invention against aerobic pathogens were evaluated by measuring the minimum concentration of the antibiotic capable of inhibiting bacterial growth by 90% compared to the growth of the non-drug treated control group. MIC was measured by the broth microdilution method based on CLSI standards [Reference: Clinical and Laboratory Standards Institute Document. (2000) Methods for Dilution Antimicrobial Susceptibility Test for Bacteria that Grow Aerobically-Fifth Edition: M7-A5. CLSI, Villanova, PA].
(§2) All 13 strains such as methicillin susceptible Staphylococcus aureus (MSSA), methicillin resistant Staphylococcus aureus (MRSA), Vancomycin resistant Staphylococcus aureus (VRSA), Staphylococcus epidermidis, methicillin resistant Staphylococcus epidermidis, Enterococcus faecalis, Vancomycin resistant Enterococcus faecalis, Enterococcus faecium, Vancomycin resistant Enterococcus faecium were used.

Experiment [1] deals with S. aureus^MS. Put plainly: MIC by broth microdilution (aerobic pathogens), test strain 1. In kind it is cell-based. The settings on record: Staphylococcus aureus. The procedure:
as §1, §2

In a further experiment the test system is E. faecalis. Put plainly: MIC by broth microdilution (aerobic pathogens), test strain 7. In kind it is cell-based. The settings on record: Enterococcus faecalis; test strain 7, E. faecalis; read-out: MIC. The protocol:
as §1, §2

A further experiment relates to S. epidermis. Put plainly: MIC by broth microdilution (aerobic pathogens), test strain 5. It counts as cell-based. The settings on record: Staphylococcus epidermidis. The procedure: as §1, §2
In another experiment the test system is S. epidermis^MR. Kind of experiment: MIC by broth microdilution (aerobic pathogens), test strain 6. Particulars: Staphylococcus epidermidis; test strain 6, S. epidermis^MR (methicillin resistant); read-out: MIC. In kind it is cell-based, Methicillin resistant Staphylococcus epidermidis. The procedure: as §1, §2
The subject of another experiment is E. faecalis^VanA. Kind of experiment: MIC by broth microdilution (aerobic pathogens), test strain 8. The settings on record: Enterococcus faecalis; test strain 8, E. faecalis^VanA (vancomycin resistant); read-out: MIC. In kind it is cell-based, Vancomycin resistant Enterococcus faecalis. The procedure: as §1, §2
In experiment [2] the test system is S. aureus^MS. Kind of experiment: MIC by broth microdilution (aerobic pathogens), test strain 2. In kind it is cell-based. The settings on record: Staphylococcus aureus. The procedure: as §1, §2
For the next experiment, the system named is C. difficile 174. Put plainly: MIC by agar dilution against Clostridioides difficile, test strain 18. It counts as cell-based. The settings on record: test strain 18, C. difficile 174, anaerobic, agar dilution, read-out: MIC.
The test system of a further experiment is C. difficile 152. Kind of experiment: MIC by agar dilution against Clostridioides difficile, test strain 14. The settings on record: test strain 14, C. difficile 152, anaerobic, agar dilution, read-out: MIC. In kind it is cell-based.
Another experiment deals with C. difficile 9689. Put plainly: MIC by agar dilution against Clostridioides difficile, test strain 13. It counts as cell-based. Particulars: test strain 13, C. difficile 9689, anaerobic, agar dilution, read-out: MIC.
The next experiment concerns C. difficile 161. Put plainly: MIC by agar dilution against Clostridioides difficile, test strain 16. It counts as cell-based. Particulars: test strain 16, C. difficile 161, anaerobic, agar dilution, read-out: MIC.
The test system of the next experiment is C. difficile 181. Put plainly: MIC by agar dilution against Clostridioides difficile, test strain 19. It counts as cell-based. Particulars: test strain 19, C. difficile 181, anaerobic, agar dilution, read-out: MIC.
Another experiment has as its system C. difficile 173. Put plainly: MIC by agar dilution against Clostridioides difficile, test strain 17. In kind it is cell-based. Particulars: test strain 17, C. difficile 173, anaerobic, agar dilution, read-out: MIC.
Another experiment deals with E. faecium. Put plainly: MIC by broth microdilution (aerobic pathogens), test strain 10. In kind it is cell-based. Particulars: Enterococcus faecium; test strain 10, E. faecium; read-out: MIC. The protocol:
as §1, §2

The next experiment relates to C. difficile 159. Kind of experiment: MIC by agar dilution against Clostridioides difficile, test strain 15. In kind it is cell-based. The settings on record: 159.
[3] abbreviates: test strain 9, E. faecalis^LinR (linezolid resistant), read-out: MIC.
[4] abbreviates: test strain 1, S. aureus^MS, read-out: MIC.
The mark [5] stands for this setting: test strain 2, S. aureus^MS, read-out: MIC.

For `C/C=C1\NC(=O)[C@H]([C@@H](C)O)NC(=O)c2csc(n2)-c2ccc(-c3nc(-c4nc(C(=O)NC5(C(=O)NCCN6CCOCC6)CC5)cs4)cs3)nc2-c2csc(n2)[C@H]([C@@H](C)O)NC(=O)c2csc(n2)[C@H](C(C)C)NC(=O)c2csc1n2` [Compound 2], the MIC worked out at 1 µg/mL (≈ 0.834 µM) with E. faecalis^LinR (setting [3]); 1 µg/mL (≈ 0.834 µM) in the experiment with S. aureus^MS [1] (setting [4]); 0.5 µg/mL (≈ 0.417 µM) in the experiment on E. faecalis; 0.25 µg/mL (≈ 0.208 µM) in the experiment with S. epidermis; 0.5 µg/mL (≈ 0.417 µM) in the experiment with S. epidermis^MR; 0.5 µg/mL (≈ 0.417 µM) with E. faecalis^VanA. Besides, the minimum inhibitory concentration (MIC) in the experiment with S. aureus^MS [2] (setting [5]) was found to be 1 µg/mL (≈ 0.834 µM).

For `C/C=C1\NC(=O)[C@H]([C@@H](C)O)NC(=O)c2csc(n2)-c2ccc(-c3nc(-c4nc(C(=O)NC5(C(=O)NCCCn6cc([N+](=O)[O-])cn6)CC5)cs4)cs3)nc2-c2csc(n2)[C@H]([C@@H](C)O)NC(=O)c2csc(n2)[C@H](C(C)C)NC(=O)c2csc1n2` [Compound 13], the minimum inhibitory concentration (MIC) in the experiment with C. difficile 174 stood at 0.125 µg/mL (≈ 0.101 µM); in the experiment with C. difficile 152, 1 µg/mL (≈ 0.807 µM); in the experiment with C. difficile 9689, 0.5 µg/mL (≈ 0.403 µM); in the experiment with C. difficile 161 it was 0.5 µg/mL (≈ 0.403 µM); in the experiment on C. difficile 181 it was 0.5 µg/mL (≈ 0.403 µM); in the experiment on C. difficile 173 it was 0.5 µg/mL (≈ 0.403 µM).

`C/C=C1\NC(=O)[C@H]([C@@H](C)O)NC(=O)c2csc(n2)-c2ccc(-c3nc(-c4nc(C(=O)NC5(C(=O)NCCCN6CCN(C7CC7)CC6)CC5)cs4)cs3)nc2-c2csc(n2)[C@H]([C@@H](C)O)NC(=O)c2csc(n2)[C@H](C(C)C)NC(=O)c2csc1n2` [Compound 15]: the MIC with E. faecalis^LinR (setting [3]) was 0.5 µg/mL (≈ 0.399 µM); in the experiment with S. aureus^MS [1] (setting [4]), 1 µg/mL (≈ 0.798 µM); in the experiment on E. faecalis, 1 µg/mL (≈ 0.798 µM); with S. epidermis (test strain 5, S. epidermis, read-out: MIC) it was 1 µg/mL (≈ 0.798 µM); with S. epidermis^MR, 1 µg/mL (≈ 0.798 µM); in the experiment with S. aureus^MS [2] (setting [5]), 1 µg/mL (≈ 0.798 µM). Besides, the minimum inhibitory concentration (MIC) in the experiment with E. faecium worked out at 1 µg/mL (≈ 0.798 µM).

For the compound `C/C=C1\NC(=O)[C@H]([C@@H](C)O)NC(=O)c2csc(n2)-c2ccc(-c3nc(-c4nc(C(=O)NC5(C(=O)NCCCN6C(=O)CN(CCC(=O)OC)C6=O)CC5)cs4)cs3)nc2-c2csc(n2)[C@H]([C@@H](C)O)NC(=O)c2csc(n2)[C@H](C(C)C)NC(=O)c2csc1n2` [Compound 16], the minimal inhibitory concentration (MIC) with E. faecalis^LinR was 0.25 µg/mL (≈ 0.19 µM); in the experiment on S. aureus^MS [1], 1 µg/mL (≈ 0.762 µM); with C. difficile 159, 0.5 µg/mL (≈ 0.381 µM); with S. aureus^MS [2], 0.5 µg/mL (≈ 0.381 µM).

Turning to `C/C=C1\NC(=O)[C@H]([C@@H](C)O)NC(=O)c2csc(n2)-c2ccc(-c3nc(-c4nc(C(=O)NC5(C(=O)NCCCNC6COC6)CC5)cs4)cs3)nc2-c2csc(n2)[C@H]([C@@H](C)O)NC(=O)c2csc(n2)[C@H](C(C)C)NC(=O)c2csc1n2` [Compound 17], the MIC in the experiment on S. aureus^MS [1] (setting [4]) and in the experiment with S. aureus^MS [2] (setting [5]) was 1 µg/mL (≈ 0.834 µM) in each case.

As for `C/C=C1\NC(=O)[C@H]([C@@H](C)O)NC(=O)c2csc(n2)-c2ccc(-c3nc(-c4nc(C(=O)NC5(C(=O)NCCCN6C(=O)CN(CCC(=O)O)C6=O)CC5)cs4)cs3)nc2-c2csc(n2)[C@H]([C@@H](C)O)NC(=O)c2csc(n2)[C@H](C(C)C)NC(=O)c2csc1n2` [Compound 19], the MIC in the experiment with S. aureus^MS [1] came out at 0.5 µg/mL (≈ 0.385 µM).

As to `C/C=C1\NC(=O)[C@H]([C@@H](C)O)NC(=O)c2csc(n2)-c2ccc(-c3nc(-c4nc(C(=O)NC5(C(=O)NCCCCCB(O)O)CC5)cs4)cs3)nc2-c2csc(n2)[C@H]([C@@H](C)O)NC(=O)c2csc(n2)[C@H](C(C)C)NC(=O)c2csc1n2` [Compound 21], the MIC in the experiment on E. faecalis^LinR (setting [3]) worked out at 0.5 µg/mL (≈ 0.417 µM); in the experiment with C. difficile 174, 0.25 µg/mL (≈ 0.208 µM); with C. difficile 152 it was 0.25 µg/mL (≈ 0.208 µM); in the experiment with C. difficile 9689, 0.25 µg/mL (≈ 0.208 µM); with S. aureus^MS [1] (setting [4]) it was 0.25 µg/mL (≈ 0.208 µM); in the experiment with C. difficile 181 it was 1 µg/mL (≈ 0.833 µM). In addition, the minimum inhibitory concentration (MIC) came out at 0.125 µg/mL (≈ 0.104 µM) in the experiment with S. aureus^MS [2] (setting [5]) and 0.5 µg/mL (≈ 0.417 µM) in the experiment on C. difficile 173.

With `C/C=C1\NC(=O)[C@H]([C@@H](C)O)NC(=O)c2csc(n2)-c2ccc(-c3nc(-c4nc(C(=O)NC5(C(=O)NCCCn6c(=O)[nH]cc([N+](=O)[O-])c6=O)CC5)cs4)cs3)nc2-c2csc(n2)[C@H]([C@@H](C)O)NC(=O)c2csc(n2)[C@H](C(C)C)NC(=O)c2csc1n2` [Compound 22], the minimal inhibitory concentration (MIC) in the experiment with E. faecalis^LinR (setting [3]) was found to be 0.5 µg/mL (≈ 0.39 µM); in the experiment on C. difficile 174, 0.125 µg/mL (≈ 0.0974 µM); in the experiment with C. difficile 152, 0.125 µg/mL (≈ 0.0974 µM); in the experiment with C. difficile 9689, 0.125 µg/mL (≈ 0.0974 µM); in the experiment on S. aureus^MS [1] (setting [4]), 0.25 µg/mL (≈ 0.195 µM); with S. aureus^MS [2] (setting [5]), 0.125 µg/mL (≈ 0.0974 µM). In addition, the minimum inhibitory concentration (MIC) in the experiment with C. difficile 173 turned out to be 0.5 µg/mL (≈ 0.39 µM).
